{"source": "ChEMBL document CHEMBL1121600", "about": "“Inhibitors of phenylethanolamine N-methyltransferase and epinephrine biosynthesis. 2. 1,2,3,4-Tetrahydroisoquinoline-7-sulfonanilides” (J Med Chem, 1980)", "type_in_all_cases": "organism-based", "key": {"[1]": {"target": "T1, Phenylethanolamine N-methyltransferase (Mus musculus) (UniProt P40935)", "T1 sequence (whole entry)": "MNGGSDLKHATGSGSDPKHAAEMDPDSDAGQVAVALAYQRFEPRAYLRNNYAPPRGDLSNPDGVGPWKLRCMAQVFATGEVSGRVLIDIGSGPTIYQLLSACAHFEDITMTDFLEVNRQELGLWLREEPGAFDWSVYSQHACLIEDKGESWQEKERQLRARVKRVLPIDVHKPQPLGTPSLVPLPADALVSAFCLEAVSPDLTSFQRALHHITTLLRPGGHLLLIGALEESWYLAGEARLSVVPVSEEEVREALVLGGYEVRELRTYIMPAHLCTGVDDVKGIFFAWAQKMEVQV", "test": "Phenylethanolamine N-Methyltransferase inhibition assay in a 7-day mouse study was determined by epinephrine level at 25 mg/kg dose", "set-up": "dose 25 mg/kg"}, "[2]": {"target": "T2, Phenylethanolamine N-methyltransferase (Homo sapiens) (UniProt P11086)", "T2 sequence (whole entry)": "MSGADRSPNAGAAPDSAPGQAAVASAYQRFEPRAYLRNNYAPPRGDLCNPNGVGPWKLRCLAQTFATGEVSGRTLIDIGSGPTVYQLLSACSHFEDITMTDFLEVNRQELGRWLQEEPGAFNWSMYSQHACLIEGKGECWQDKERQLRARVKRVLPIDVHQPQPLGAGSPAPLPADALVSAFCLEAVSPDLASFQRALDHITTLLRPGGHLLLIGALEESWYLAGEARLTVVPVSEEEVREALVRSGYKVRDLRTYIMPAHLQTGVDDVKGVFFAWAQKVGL", "test": "Epinephrine to norepinephrine ratio at 100 mg/kg dose", "set-up": "dose 100 mg/kg", "details": "Oryctolagus cuniculus"}, "[3]": {"target": "T1, Phenylethanolamine N-methyltransferase (Mus musculus)", "test": "Phenylethanolamine N-Methyltransferase inhibition assay in a 7-day mouse study was determined by epinephrine level at 100 mg/kg dose", "set-up": "dose 100 mg/kg"}, "[4]": {"target": "T1, Phenylethanolamine N-methyltransferase (Mus musculus)", "test": "Phenylethanolamine N-Methyltransferase inhibition assay in a 7-day mouse study was determined by epinephrine level at 50 mg/kg dose", "set-up": "dose 50 mg/kg"}}}
{"smiles": "O=S(=O)(Nc1ccc(Cl)cc1)c1ccc2c(c1)CNCC2", "values": [{"measurement": "Epinephrine level", "setting": "[1]", "result": 8}]}
{"smiles": "O=S(=O)(Nc1ccc(Br)cc1)c1ccc2c(c1)CNCC2", "values": [{"measurement": "Ratio", "setting": "[2]", "result": 2.1}, {"measurement": "Epinephrine level", "setting": "[3]", "result": 7}]}
{"smiles": "NS(=O)(=O)c1ccc2c(c1)CNCC2", "values": [{"measurement": "Epinephrine level", "setting": "[4]", "result": 5.9}, {"measurement": "Epinephrine level", "setting": "[1]", "result": 6.7}, {"measurement": "Epinephrine level", "setting": "[3]", "result": 5.8}]}
